Results published in patent US20260200928A1, “THERAPEUTIC COMPOUNDS” (Sanofi, priority 2022, published 2026).

Target: T1, human IL-17A (Homo sapiens, UniProt Q16552)
T1 construct: purchased R&D Systems 7955-IL/CF
T1 sequence (Q16552 24-155): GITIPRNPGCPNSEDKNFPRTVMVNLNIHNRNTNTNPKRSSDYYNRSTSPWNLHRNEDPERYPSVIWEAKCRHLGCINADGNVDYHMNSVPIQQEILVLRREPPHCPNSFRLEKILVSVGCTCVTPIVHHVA
Assay: IL-17A AlphaLISA competition assay (block of IL-17A binding to its receptor IL-17RA)
Conditions: mean IC50 (n≥2), block of IL-17A binding to IL-17RA
Method: The ability of the compounds to block binding of IL-17A to its receptor, IL-17RA, was analysed in a competition assay using AlphaLISA technology (Perkin Elmer). The assay is a bead based AlphaLISA where the IL-17RA is captured on the acceptor bead via an Fc tag and IL-17A is captured on the streptavidin donor bead via a biotinylated anti-IL17A antibody.
Assay buffer was prepared by adding 0.05% Tween-20 (v/v) and 0.1% BSA to Phosphate Buffered Saline (PBS). The assay was carried out in 384-well white low volume plates (Perkin Elmer #6008359). 10 μL of a 7.5 nM stock of human recombinant IL-17A (R&D Systems 7955-IL/CF) diluted in assay buffer was dispensed into the assay plate and compounds or DMSO vehicle control were added in a volume of 75 nL using an acoustic dispenser (Beckman). The compounds were pre-incubated with the IL-17A for 30 min at room temperature prior to addition of 5 μL of a 5 nM stock of human recombinant IL-17RA/Fc chimera (R&D Systems 177-IR-100) diluted in assay buffer. The IL-17A was incubated with the receptor for a further 90 minutes at room temperature before addition of 5 μL of a mixture of anti-human Fc IgG acceptor beads (75 μg/mL, Perkin Elmer AL1030) and anti-IL-17A biotin conjugated antibody (5 nM, Abcam, #ab155575) in assay buffer. After a further 30 min incubation at room temperature, 5 μL of streptavidin donor beads (75 μg/mL, Perkin Elmer 6760002S) were added and the plate was incubated for 3 h in the dark.
The AlphaLisa signal was measured using the PheraSTAR plate reader (BMG). Data were analysed using GeneData Screener and fitted to a 4-parameter logistic equation. The IC50 values were calculated using the DMSO vehicle as the negative control and a high concentration (4 μM) of a reference IL-17A inhibitor as the positive control. All compounds were analysed at least in duplicate (n≥2).

SMILES | IC50
Cn1nccc1C(=O)N[C@H](C(=O)Nc1cc(CN2C[C@@H](C(F)(F)F)NC2=O)ccn1)[C@H]1CC[C@@H](C)CC1 [Example 264, 1-Methyl-N—((S)-1-((1s,4R)-4-methylcyclohexyl)-2-oxo-2-((4-(((S)-2-oxo-4-(trifluoromethyl)imidazolidin-1-yl)methyl)pyridin-2-yl)amino)ethyl)-1H-pyrazole-5-carboxamide] | 99 nM
CCc1nocc1C(=O)N[C@H](C(=O)Nc1cc([C@@H](CC)N2C[C@@H](C(F)(F)F)NC2=O)ccn1)C1CCC(F)(F)CC1 [Example 210, N-((S)-1-(4,4-difluorocyclohexyl)-2-oxo-2-((4-((R)-1-((S)-2-oxo-4-(trifluoromethyl)imidazolidin-1-yl)propyl)pyridin-2-yl)amino)ethyl)-3-ethylisoxazole-4-carboxamide] | 38 nM
CCc1nocc1C(=O)NC(C(=O)Nc1cc(C(NC(=O)CCC(F)(F)F)C2CC2)ccn1)C1CCC(F)(F)CC1 (stereo not shown) [Example 49, N-(2-((4-(cyclopropyl(4,4,4-trifluorobutanamido)methyl)pyridin-2-yl)amino)-1-(4,4-difluorocyclohexyl)-2-oxoethyl)-3-ethylisoxazole-4-carboxamide] | 776 nM
Cn1nccc1C(=O)N[C@H](C(=O)Nc1cc(OC2CCNC2=O)ccn1)[C@H]1CC[C@H](C)CC1 (stereo partly drawn) [Example 118, 1-methyl-N-((1S)-1-((1r,4S)-4-methylcyclohexyl)-2-oxo-2-((4-((2-oxopyrrolidin-3-yl)oxy)pyridin-2-yl)amino)ethyl)-1H-pyrazole-5-carboxamide] | 8970 nM
COC[C@H](c1ccnc(NC(=O)[C@H](COC(C)(C)C(F)(F)F)NC(=O)c2ccnn2C)c1)N1C[C@@H](C(F)(F)F)NC1=O [Example 271, N-((S)-1-((4-((S)-2-methoxy-1-((S)-2-oxo-4-(trifluoromethyl)imidazolidin-1-yl)ethyl)pyridin-2-yl)amino)-1-oxo-3-((1,1,1-trifluoro-2-methylpropan-2-yl)oxy)propan-2-yl)-1-methyl-1H-pyrazole-5-carboxamide] | 36 nM
CCc1nonc1C(=O)N[C@H](C(=O)Nc1cc(CN2C[C@@H](C(F)(F)F)NC2=O)ccn1)[C@@H](C)OC(C)(C)C [Example 129, N-((2S,3R)-3-(tert-butoxy)-1-oxo-1-((4-(((S)-2-oxo-4-(trifluoromethyl)-imidazolidin-1-yl)methyl)-pyridin-2-yl)amino)butan-2-yl)-4-ethyl-1,2,5-oxa-diazole-3-carboxamide] | 533 nM
C[C@H]1CC[C@H]([C@@H](NC(=O)c2nonc2C2CC2)C(=O)Nc2cc(C(NC(=O)CCC(F)(F)F)C3CC3)ccn2)CC1 (stereo partly drawn) [Example 235, 4-Cyclopropyl-N-((1S)-2-((4-(cyclopropyl(4,4,4-trifluorobutanamido)-methyl)pyridin-2-yl)amino)-1-((1r,4S)-4-methylcyclohexyl)-2-oxoethyl)-1,2,5-oxadiazole-3-carboxamide] | 66 nM
CCc1oncc1C(=O)NC(C(=O)Nc1cc([C@@H](COC)N2CC(F)(F)CNC2=O)ccn1)C1CCC(F)(F)CC1 (stereo in doubt) [Example 176, N—((S)-2-((4-((S)-1-(5,5-difluoro-2-oxotetrahydropyrimidin-1(2H)-yl)-2-methoxyethyl)pyridin-2-yl)amino)-1-(4,4-difluorocyclohexyl)-2-oxoethyl)-5-ethylisoxazole-4-carboxamide] | 57 nM
CC(C)n1nccc1C(=O)N[C@H](C(=O)Nc1cc(OC2CCNC2=O)ccn1)[C@H]1CC[C@H](C)CC1 (stereo partly drawn) [Example 119, 1-isopropyl-N-((1S)-1-((1r,4S)-4-methylcyclohexyl)-2-oxo-2-((4-((2-oxopyrrolidin-3-yl)oxy)pyridin-2-yl)amino)ethyl)-1H-pyrazole-5-carboxamide] | 3990 nM
CC(C)(C)OCC(NC(=O)c1nonc1C1CC1)C(=O)Nc1cc(CN2C[C@@H](C(F)(F)F)NC2=O)ccn1 (stereo partly drawn) [Example 82, N-(3-(tert-butoxy)-1-oxo-1-((4-(((S)-2-oxo-4-(trifluoromethyl)imidazolidin-1-yl)methyl)pyridin-2-yl)amino)propan-2-yl)-4-cyclopropyl-1,2,5-oxadiazole-3-carboxamide] | 1170 nM
CC(C)(C)OC(=O)N[C@H](C(=O)Nc1cc(CN2C(=O)CNC2=O)ccn1)C1CCC(F)(F)CC1 [Example 28, Tert-butyl (S)-(1-(4,4-difluorocyclohexyl)-2-((4-((2,5-dioxoimidazolidin-1-yl)methyl)pyridin-2-yl)amino)-2-oxoethyl)carbamate] | 8400 nM
CN1C[C@H]2[C@@H]([C@H]1C(=O)N[C@H](C(=O)Nc1cc(C(NC(=O)CCC(F)(F)F)C3CC3)ccn1)C(C1CC1)C1CC1)C2(C)C (single isomer, unassigned) [Example 56] | 7420 nM
COCC(c1ccnc(NC(=O)[C@@H](NC(=O)c2ccnn2C)C2CCC(C)CC2)c1)N1C[C@@H](C(F)(F)F)NC1=O (stereo partly drawn) [Example 76, N-((1S)-2-((4-(2-methoxy-1-((S)-2-oxo-4-(trifluoro-methyl)imidazolidin-1-yl)ethyl)pyridin-2-yl)amino)-1-((1r,4S)-4-methylcyclohexyl)-2-oxoethyl)-1-methyl-1H-pyrazole-5-carboxamide] | 93 nM
COCC(NC(=O)CCC(F)(F)F)c1ccnc(NC(=O)C(NC(=O)c2nonc2C)C2CCC(C)CC2)c1 [Example 242, N-((1S)-2-((4-(2-methoxy-1-(4,4,4-trifluorobutanamido)ethyl)pyridin-2-yl)amino)-1-((1r,4S)-4-methylcyclohexyl)-2-oxoethyl)-4-methyl-1,2,5-oxadiazole-3-carboxamide] | 85 nM
COCC(c1ccnc(NC(=O)[C@@H](NC(=O)c2nnnn2C)[C@H]2CC[C@H](C)CC2)c1)N1C[C@@H](C(F)(F)F)NC1=O (single isomer, unassigned) [Example 93] | 341 nM
CCn1nccc1C(=O)N[C@H](C(=O)Nc1cc([C@@H](COC)N2C[C@@H](C(F)(F)F)NC2=O)ccn1)C1CCC(Cl)CC1 (stereo partly drawn) [Example 310, N-((1S)-1-(4-chlorocyclohexyl)-2-((4-((S)-2-methoxy-1-((S)-2-oxo-4-(trifluoromethyl)imidazolidin-1-yl)ethyl)pyridin-2-yl)amino)-2-oxoethyl)-1-ethyl-1H-pyrazole-5-carboxamide] | 71 nM
CCc1oncc1C(=O)N[C@H](C(=O)Nc1cc([C@@H](COC)N2C[C@@H](C(F)(F)F)NC2=O)ccn1)[C@@H]1C[C@H]2C[C@H]2C1 [Example 318, N—((S)-1-((1R,3s,5S)-bicyclo[3.1.0]hexan-3-yl)-2-((4-((S)-2-methoxy-1-((S)-2-oxo-4-(trifluoromethyl)imidazolidin-1-yl)ethyl)pyridin-2-yl)amino)-2-oxoethyl)-5-ethylisoxazole-4-carboxamide] | 64 nM
CC(C)n1nccc1C(=O)N[C@H](C(=O)Nc1cc(CN2C[C@@H](C(F)(F)F)NC2=O)c(F)cn1)[C@H]1CC[C@H](C)CC1 [Example 63, N-((S)-2-((5-fluoro-4-(((S)-2-oxo-4-(trifluoromethyl)-imidazolidin-1-yl)methyl)-pyridin-2-yl)amino)-1-((1r,4S)-4-methylcyclo-hexyl)-2-oxoethyl)-1-isopropyl-1H-pyrazole-5-carboxamide] | 330 nM
COC[C@H](c1ccnc(NC(=O)[C@@H](NC(=O)c2nonc2OCC(F)(F)F)C2CCC(F)(F)CC2)c1)N1C[C@@H](C(F)(F)F)NC1=O [Example 193, N-((S)-1-(4,4-difluorocyclohexyl)-2-((4-((S)-2-methoxy-1-((S)-2-oxo-4-(trifluoromethyl)imidazolidin-1-yl)ethyl)pyridin-2-yl)amino)-2-oxoethyl)-4-(2,2,2-trifluoroethoxy)-1,2,5-oxadiazole-3-carboxamide] | 105 nM
COCC(c1ccnc(NC(=O)[C@@H](NC(=O)c2nocc2C)[C@H]2CC[C@H](C)CC2)c1)N1C[C@@H](C(F)(F)F)NC1=O (single isomer, unassigned) [Example 120] | 18 nM
COCC(c1ccnc(NC(=O)C(NC(=O)Cc2c(C)noc2C)C2CCC(C)CC2)c1)N1CC(C(F)(F)F)NC1=O [Example 113, (2S)-2-(2-(3,5-dimethyl-isoxazol-4-yl)acetamido)-N-(4-(2-methoxy-1-((S)-2-oxo-4-(trifluoromethyl)-imidazolidin-1-yl)ethyl)-pyridin-2-yl)-2-((1r,4S)-4-methylcyclohexyl)-acetamide] | 1000 nM
COCC(NC(=O)CCC(F)(F)F)c1ccnc(NC(=O)[C@@H](NC(=O)c2nonc2C2CC2)C2CCC(F)(F)CC2)c1 (single isomer, unassigned) [Example 133] | 73 nM
